Measured values: ChEMBL document CHEMBL3817790 (Medchemcomm, 2016)
pEC50, pIC50: −log10 of the molar value.

Tests used:
Trypanosoma cruzi [1] = test: Antitrypanosomal activity against epimastigote stage of Trypanosoma cruzi Y assessed as reduction in parasitic count after 96 hrs by Neubauer hemocytometry; format: functional, organism-based
Trypanosoma cruzi [2] = test: Antitrypanosomal activity against trypomastigote stage of Trypanosoma cruzi Y assessed as reduction in parasitic viability after 24 hrs by Pizzi-Brener method; format: functional, organism-based
Leishmania amazonensis = test: Antileishmanial activity against promastigote stage of Leishmania amazonensis MHOM/BR/75/Josefa assessed as reduction in parasitic count after 72 hrs by Neubauer hemocytometry; format: functional, organism-based
[3] = Cytotoxicity against African green monkey Vero cells after 72 hrs by MTT assay; format: cell-based; details: chlorocebus sabaeus
Leishmania donovani = test: Antileishmanial activity against promastigote stage of Leishmania donovani after 2 hrs by [3H]thymidine incorporation assay; format: functional, organism-based

Row | Structure (SMILES) | pIC50 (Trypanosoma cruzi [1]) | pEC50 (Trypanosoma cruzi [2]) | pIC50 (Leishmania amazonensis) | CC50 at 72 h [3] [µM] | pIC50 (Leishmania donovani)
1 | COc1ccc(/C=C(\C)C(C)=O)cc1 | < 4.00 | < 4.00 | < 4.00 | 240 | –
2 | CC/C(=C\c1ccc(Cl)cc1)C(=O)/C=C/c1ccc([N+](=O)[O-])cc1 | 5.60 | 4.75 | 6.30 | 36 | –
3 | COc1ccc(/C=C(\C)C(=O)/C=C/c2ccccc2Cl)cc1 | 4.75 | 4.66 | 4.71 | 74.3 | –
4 | CC/C(=C\c1ccc(Cl)cc1)C(=O)/C=C/c1ccccc1Br | 5.74 | 4.70 | 5.89 | 24.4 | –
5 | CC/C(=C\c1ccc(Cl)cc1)C(=O)/C=C/c1ccc(Cl)cc1 | 4.99 | 4.59 | 5.62 | 28.3 | –
6 | COc1ccc(/C=C(\C)C(=O)/C=C/c2cc(OC)c(OC)c(OC)c2)cc1 | 5.21 | 4.16 | 5.43 | 21.4 | –
7 | COc1ccc(/C=C(\C)C(=O)/C=C/c2ccccc2Br)cc1 | 4.66 | 4.60 | 4.66 | 71 | –
8 | COc1ccc(/C=C(\C)C(=O)/C=C/c2ccc(Br)cc2)cc1 | 4.70 | 4.68 | 4.76 | 31.2 | –
9 | COc1ccc(/C=C(\C)C(=O)/C=C/c2ccccc2F)cc1 | 4.82 | 4.17 | 4.49 | 81.2 | –
10 | COc1ccc(/C=C(\C)C(=O)/C=C/c2ccc(/C=C/C(=O)/C(C)=C/c3ccc(OC)cc3)cc2)cc1 | < 4.00 | < 4.00 | 4.12 | 460 | –
11 | COc1ccc(/C=C(\C)C(=O)/C=C/c2c(Cl)cccc2Cl)cc1 | 4.71 | 4.55 | 5.09 | 65.7 | –
12 | COc1ccc(/C=C(\C)C(=O)/C=C/c2cccc(Br)c2)cc1 | 4.76 | 4.69 | 4.76 | 152 | –
13 | COc1ccc(/C=C(\C)C(=O)/C=C/c2ccc(Cl)cc2)cc1 | 4.72 | 4.64 | 4.86 | 87 | –
14 | COc1ccc(/C=C(\C)C(=O)/C=C/c2ccc(F)cc2)cc1 | 4.82 | 4.71 | 4.71 | 68.1 | –
15 | CC/C(=C\c1ccc(Cl)cc1)C(=O)/C=C/c1ccc(C=O)cc1 | 4.19 | 4.13 | 4.76 | 46.9 | –
16 | COc1ccc(/C=C(\C)C(=O)/C=C/c2ccc(OC)c(OC)c2)cc1 | 5.01 | 4.18 | 5.01 | 74.2 | –
17 | COc1cc(/C=C/C(=O)c2ccc(O)c(O)c2)c(OC)c(OC)c1O | – | – | – | – | 5.43
18 | COc1ccc(/C=C(\C)C(=O)/C=C/c2cccc(Cl)c2Cl)cc1 | 4.77 | 4.83 | 4.86 | 119 | –
19 | CC/C(=C\c1ccc(Cl)cc1)C(=O)/C=C/c1ccc(Br)cc1 | 5.27 | 4.71 | 5.85 | 29.4 | –
20 | CC/C(=C\c1ccc(Cl)cc1)C(=O)/C=C/c1cccc(OC)c1OC | 5.26 | 4.72 | 5.70 | 21.8 | –
21 | CC/C(=C\c1ccc(Cl)cc1)C(C)=O | < 4.00 | < 4.00 | 4.24 | 136 | –
22 | CC/C(=C\c1ccc(Cl)cc1)C(=O)/C=C/c1ccc2c(c1)OCO2 | 5.55 | 5.12 | 5.54 | 27.1 | –
23 | O=C(Cn1ccnc1[N+](=O)[O-])NCc1ccccc1 [BENZNIDAZOLE] | 5.19 | 4.46 | – | – | –
